According to patent US7189751B2, “Oxa(thia)zolidine compounds, process for preparation thereof and anti-inflammatory agents” (Nippon Soda Co., Ltd., priority 2001, dated 2007):

Assays:
[1] = tested on: Mouse Delayed Contact Dermatitis Induced by Picryl Chloride; experiment: Mouse delayed contact dermatitis induced by picryl chloride; format: in vivo
Protocol: Pharmacological Test Example 3 Mouse Delayed Contact Dermatitis Induced by Picryl Chloride
This pharmacological test was carried out referring to the method of Asherson, G. L. & Ptak, W. (Immunology, 15: 405–416 (1968).) and the method of Jun Hiroi (Folia Pharmacology of Japan, 86: 233–239 (1985).). More specifically, hairs on the abdomen of an ICR-strain male mouse were removed using an electric clipper and an electric shaver. Then, 0.1 mL of 7% ether solution of picryl chloride (Tokyo Kasei Kogyo Co., Ltd., C 0307) was applied onto the abdomen for sensitization. On the sixth day after the sensitization, 20 μL/ear of 1% olive oil solution of picryl chloride was topically applied to the anterior and posterior surfaces of both ears of the mouse to induce contact dermatitis (first induction). Before and 24 hours after the induction, the thicknesses of the particular parts on the both ears were measured three times, respectively, using a digimatic micrometer (Mitsutoyo Co., Ltd.) to work out the average values. Ear edema of the both ears was respectively determined by subtracting the average thickness of the each ear before the induction from that on 24 hours after the induction, so that a grouping was carried out to separate the appropriate individuals. On the fourth day after the first induction, the hairs on the abdomen were removed again, and 0.1 mL of 7% ethanol solution of picryl chloride was applied thereto for additional sensitization. The contact dermatitis for evaluating activity was induced by re-applying 20 μL/ear of 1% olive oil solution of picryl chloride to the anterior and posterior surfaces of both ears (second induction) on the seventh day after the additional sensitization (on the […] after the first sensitization). The activity of each compound of the present invention was evaluated as the inhibition on the contact dermatitis as compared with that of the vehicle applied control. That is, the thicknesses of the particular portions of the both ears were measured respectively three times with a digimatic micrometer to work out the mean values before, 24 hours and 48 hours after the second induction. Ear swelling was determined by subtracting the ear thickness before the second induction from that on 24 hours and 48 hours after the second induction, respectively. Topical application activity was evaluated by applying 25 μL of the acetone solution of the compound of the present invention similarly to the anterior and posterior surfaces of the right ear one hour before and 16 hours after the second induction. As the positive control, 0.02 mg/20 μL of acetone solution of Dexamethasone (hereinafter referred to as DEX, Wako Pure Chemical Industries Ltd., 047-18863) was applied similarly as for the compound of the present invention. With respect to the inhibitory activity in topical application tests, the topical activity was determined by the inhibition of the applied right ear edema, and the translocation and distribution property was determined by the activity onto the swelling of non-treated left ear. Oral administration activity was evaluated by administrating 0.5% methyl cellulose suspension of the compound of the present invention forcibly and perorally to the mouse an hour before and 16 hours after the second induction. As the positive control, 20 mg/kg of Prednisolone (Sigma Chemical Co., P 6004) suspension was administrated similarly as for the compounds of the present invention. […] As the examples, the body weight changes in the mice for 48 hours after the second induction when they were administrated with the compounds shown in Table 5 are shown in Table 6.

[2] = tested on: Mouse Delayed Contact Dermatitis Induced by Picryl Chloride; experiment: as above; format: in vivo; remark: listed apart in the source

For `C[C@@H]1C[C@H]2[C@@H]3CCC4=CC(=O)C=C[C@]4(C)[C@@]3(F)[C@@H](O)C[C@]2(C)[C@@]1(O)C(=O)CO` [DEX, Dexamethasone], the “Change in body weight 48 hours after induction (Mean ± S.E.)” value ([1]; 0.02 mg/ear × 2, vehicle control −0.45 ± 0.20) was -1.42 ± 0.20 g, the “Change in body weight 48 hours after induction (Mean ± S.E.) (%)” value ([1]; 0.02 mg/ear × 2, vehicle control −1.29 ± 0.59) was −4.30 ± 0.59% and the intoxicated symptoms ([1]; mice of the picryl chloride dermatitis test) was “showed intoxicated symptoms”. For the same compound, the “body weight 48 hours after the second induction” value ([1]; mice of the picryl chloride dermatitis test, 48 hours after the second induction) was “reduced significantly”, the “Ear swelling after 24 hours, Right (Applied) (Mean ± S.E., mm)” value ([2]; topical 0.02 mg/25 μL/ear × 2, vehicle control 0.299 ± 0.006) was 0.057 ± 0.009 mm and the “Ear swelling after 24 hours, Left (Not applied) (Mean ± S.E., mm)” value ([2]; topical 0.02 mg/25 μL/ear × 2 on right ear, vehicle control 0.284 ± 0.008) was −0.005 ± 0.033 mm.
